{
  "source": "patent US20100184818A1",
  "about": "“PHOTOSENSITIZERS FOR TARGETED PHOTODYNAMIC THERAPY” (THE GENERAL HOSPITAL CORPORATION, priority 2007, published 2010)",
  "key": {"[1]": {"test": "Octanol-water distribution coefficient", "format": "physicochemical", "details": "1-octanol / DI water, absorbance at 330 nm", "experimental": "Each compound was dissolved in a minimum amount of DMSO: CI1 (0.9 mg in 200 μl), CI2 (5.3 mg in 200 μl), CI3 (5.4 mg in 200 μl). Ten ml of DI water and 10 ml of 1-octanol were added in each compound and vigorously shaken for 2 min. and the vials of the compounds were settled down overnight. The phases were separated and UV-spectra of each phase were analyzed. Distribution coefficient of each compound was determined using absorbance of aqueous phases and organic phases at 330 nm."}, "J774 cells": {"tested_on": "J774 cells", "test": "Intracellular reactive oxygen species, H2DCFDA probe fluorescence microscopy", "format": "cell-based, murine", "details": "5 μM BF4 for 24 h, then probe, 5 J/cm2 405 nm laser, compared with probe alone", "experimental": "J774 cells were incubated with 5 μM BF4 for 24 h and on the next day 5 μg/ml of 5- (and -6)-chloromethyl-2′-7′-dichlorodihydrofluoresceine diacetate, (CMH2DCFDA, Molecular Probes, Invitrogen) in complete medium was added and incubated for 30 min at 37° C., then cells were washed with PBS and 5 J/cm2 of 405 nm laser light (Nichia Corp, Detroit, Mich.) was delivered. Five to 10 min later a Leica DMR confocal laser fluorescence microscope (Leica Mikroskopie and Systeme GmbH, Wetzler, Germany) with excitation by a 488 nm argon laser and emission with a 530 nm+/−10 nm bandpass filter, and a 63×1.20 water immersion lens was used to image the cells at a resolution of 1024×1024 pixels. Images were acquired using TCS NT software (Version 1.6.551, Leica Lasertechnik, Heidelberg, Germany)."}, "[2]": {"test": "Singlet oxygen 1270-nm luminescence and quantum yield", "format": "physicochemical", "details": "for Singlet oxygen luminescence decay curve in organic solvent: CH3OD, 449 nm excitation; for Singlet oxygen decay curve when solvent changed to aqueous buffer: deuterated PBS versus CH3OD", "text": "The sample in a 0.25 mm quartz cell was illuminated within the resonant cavity as described above. Singlet oxygen phosphorescence at 1270 nm was monitored by a nitrogen-cooled germanium detector (Model EO-817, North Coast Scientific Corp, Santa Rosa, Calif.). Photoexcitation of the sample studied was induced by a 5 ns 355 nm laser pulse from a Q-switched Nd:YAG laser (Continuum Surelite II, Santa Clara, Calif.) equipped with an optical parametric oscillator (Opotek, Carlsbad, Calif.). Sample in deuterated PBS (pD ˜6.9) or in deuterated methanol (CH3OD) was excited with 449 nm wavelength."}, "CT26 cells": {"tested_on": "CT26 cells", "test": "PDT phototoxicity, MTT assay", "format": "cell-based, murine", "details": "2 μM, 80 J/cm2 of light", "experimental": "When the cells reached 80% confluence, they were washed with PBS and harvested with 2 mL of 0.25% trypsin-EDTA solution (Sigma). Cells were then centrifuged and counted in trypan blue to ensure viability and plated at density of 5000/well in flat-bottom 96 well plates (Fisher Sci, Pittsburgh, Pa.). Cells were allowed 24 h to attach.\nOn the following day dilutions of the fullerenes were prepared in complete RPMI medium and added to the cells at […] for 24 h incubation as described. Prior to illumination the fullerene solution was removed and fresh complete medium was replaced and the illumination (150 mW/cm2 white light, 1-80 J/cm2) was performed. The light spot covered 9 wells which were considered as one experimental group. All wells in a group were illuminated at the same time. […]\nFollowing PDT treatment the cells were returned to the incubator overnight and the phototoxicity was measured using a 4 h MTT assay read at 560 nm using a microplate spectrophotometer (Spectra Max 340 PC, Molecular Devices, Sunnyvale, Calif.). […]\nBriefly cells were treated with PDT sufficient to kill 80% of cells (5 J/cm2 for J774, 20 J/cm2 for LLC and 80 J/cm2 for CT26). […] Samples were incubated in the dark for 1 h at 37° C. and fluorescence was measured (excitation 400 nm, emission 505 nm). The protein per sample was measured with bicinchoninic acid protein assay."}},
  "data": [
    {"smiles": "C[N+]1(C)CC2c3c4c5c6c3c3c(c7ccc8c9ccc%10c%11c%12c%13c%14c(c6c6c3c7c8c(c9c%10%13)c%146)=C3C5C(C=C4)C(C=C%11)C3%12)C2C1.[I-]", "note": "(stereo not drawn) [CI1]", "values": [
      {"measurement": "LogKow", "setting": "[1]", "value": 2.15},
      {"measurement": "Octanol-water partition constant Kow", "setting": "[1]", "value": 140.80},
      {"measurement": "Fluorescence of intracellular ROS probe after illumination", "setting": "J774 cells", "value": "large increase in fluorescence"},
      {"measurement": "Singlet oxygen luminescence decay curve in organic solvent", "setting": "[2]", "value": "very similar luminescence decay curves"},
      {"measurement": "Singlet oxygen decay curve when solvent changed to aqueous buffer", "setting": "[2]", "value": "almost disappeared"},
      {"measurement": "Lethal dose of PDT (share of cells killed)", "setting": "CT26 cells", "value": 80, "unit": "%"}
    ]},
    {"smiles": "C[N+]1(C)Cc2c(c3c4ccc5c6c7c8c9c%10c%11c%12c%13c(c%14c%12c%12c(c2c2c%12c%11c9c(c4c58)c32)C2C[N+](C)(C)CC%142)C=CC2C%13C=%10C7C2C=C6)C1.[I-].[I-]", "note": "(stereo not drawn) [CI2]", "values": [
      {"measurement": "LogKow", "setting": "[1]", "value": 0.11},
      {"measurement": "Octanol-water partition constant Kow", "setting": "[1]", "value": 1.28}
    ]},
    {"smiles": "C[N+]1(C)Cc2c3c4c5c6c7c8c9c(c%10c8c8c(c%11c%12c(c%13c%14ccc%15c(c2C1)c4c1c%15c%14c2c%13c%11c8c7c2c61)C[N+](C)(C)C%12)C1C[N+](C)(C)CC%101)C=CC3C95.[I-].[I-].[I-]", "note": "(stereo not drawn) [CI3]", "values": [
      {"measurement": "LogKow", "setting": "[1]", "value": "−0.43"},
      {"measurement": "Octanol-water partition constant Kow", "setting": "[1]", "value": 0.37},
      {"measurement": "Singlet oxygen luminescence decay curve in organic solvent", "setting": "[2]", "value": "very similar luminescence decay curves"},
      {"measurement": "Singlet oxygen quantum yield in O2 saturated D2O, higher than that found in air", "setting": "[2]; O2 saturated D2O versus air saturated", "value": "about 50%"},
      {"measurement": "Singlet oxygen decay curve when solvent changed to aqueous buffer", "setting": "[2]", "value": "remained almost unchanged"},
      {"measurement": "Singlet oxygen luminescence in aqueous buffer saturated with nitrogen", "setting": "[2]; nitrogen saturated aqueous buffer", "value": "luminescence disappeared"},
      {"measurement": "Lethal dose of PDT (share of cells killed)", "setting": "CT26 cells", "value": 60, "unit": "%"}
    ]},
    {"smiles": "O=C(NC(CO)CO)C1(C(=O)NC(CO)CO)C2c3c4c5c6c3c3c(c7ccc8c9ccc%10c%11ccc%12c%13c(c%14c6c6c3c7c8c3c9c%10c(c%13%11)c%14c36)C5C%12C=C4)C21", "note": "(stereo not drawn) [NI1]", "values": [
      {"measurement": "LogKow", "setting": "[1]", "value": "−1.61"},
      {"measurement": "Octanol-water partition constant Kow", "setting": "[1]", "value": 0.025}
    ]},
    {"smiles": "O=C(NC(CO)CO)C1(C(=O)NC(CO)CO)c2c1c1c3ccc4c5c6c7c(c8c9c7c7c%10c%11c%12c(ccc%13c2c2c1c1c3c4c6c7c1c%10c2c%12%13)C(C=C8)C9%11)C1C5C1(C(=O)NC(CO)CO)C(=O)NC(CO)CO", "note": "(stereo not drawn) [NI2]", "values": [
      {"measurement": "LogKow", "setting": "[1]", "value": "−1.49"},
      {"measurement": "Octanol-water partition constant Kow", "setting": "[1]", "value": 0.032}
    ]},
    {"smiles": "Cc1cc2nc3c(=O)[nH]c(=O)nc-3n(C[C@H](O)[C@H](O)[C@H](O)CO)c2cc1C", "note": "[riboflavin, Riboflavin, reference compound]", "values": [
      {"measurement": "Singlet oxygen luminescence decay curve in organic solvent", "setting": "[2]", "value": "somewhat larger"},
      {"measurement": "Singlet oxygen decay curve when solvent changed to aqueous buffer", "setting": "[2]", "value": "remained almost unchanged"}
    ]}
  ]
}
